We go through 39 molecules from US8802673B2, “Heterocyclic amine derivatives” (Hoffmann-La Roche Inc, priority 2011, dated 2014).

In assay [1] the target is rat TAAR1 (Rattus norvegicus (Rat), UniProt Q923Y9). Kind of assay: Radioligand binding assay on rat TAAR1. The conditions noted are these: rat TAAR1 (second value of the cell), HEK-293 membranes; read-out: Ki (μM) mouse/rat. In short, it runs like this: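 Membranes from HEK293 cells stably expressing rat TAAR1 were used, with radioligand Kd determined by saturation for each batch. Compounds (10 pM to 10 μM, in duplicate) were incubated for 1 h at 4 °C. Bound radioactivity was collected by filtration onto PEI-soaked GF/C filters and counted by scintillation.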

For assay [2], the target named is mouse TAAR1 (Mus musculus (Mouse), UniProt Q923Y8). The experiment in a line: Radioligand binding assay on mouse TAAR1. Particulars: mouse TAAR1 (first value of the cell), HEK-293 membranes; read-out: Ki (μM) mouse/rat. The gist of the method: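 Membranes from HEK293 cells stably expressing mouse TAAR1, Kd of radioligand determined per batch by saturation. Compounds tested 10 pM to 10 μM in duplicate, incubated 1 h at 4 °C, then filtration over PEI-soaked GF/C filters and scintillation counting.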
Sequence of mouse TAAR1 (Q923Y8 whole entry): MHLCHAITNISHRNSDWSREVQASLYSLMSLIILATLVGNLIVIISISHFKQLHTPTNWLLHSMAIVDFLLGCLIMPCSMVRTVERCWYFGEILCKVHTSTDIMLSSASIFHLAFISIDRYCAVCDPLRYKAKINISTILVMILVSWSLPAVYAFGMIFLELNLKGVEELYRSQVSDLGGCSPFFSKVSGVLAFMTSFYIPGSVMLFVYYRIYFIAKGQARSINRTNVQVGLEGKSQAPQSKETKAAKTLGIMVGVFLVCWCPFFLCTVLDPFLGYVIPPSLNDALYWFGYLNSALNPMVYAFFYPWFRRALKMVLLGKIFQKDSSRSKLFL

Sequence of rat TAAR1 (Q923Y9 whole entry): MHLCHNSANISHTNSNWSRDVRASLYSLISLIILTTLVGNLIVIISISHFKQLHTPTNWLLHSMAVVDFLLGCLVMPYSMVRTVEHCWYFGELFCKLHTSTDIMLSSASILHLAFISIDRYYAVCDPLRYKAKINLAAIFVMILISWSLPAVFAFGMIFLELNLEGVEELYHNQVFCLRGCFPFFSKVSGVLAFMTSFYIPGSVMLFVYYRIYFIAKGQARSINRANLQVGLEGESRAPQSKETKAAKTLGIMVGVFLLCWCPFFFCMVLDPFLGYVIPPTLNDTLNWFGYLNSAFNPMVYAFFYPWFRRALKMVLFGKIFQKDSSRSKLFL

`Clc1cccc2ccc(Nc3ccc([C@H]4CNCCO4)cc3)nc12` [Example 52, (S)-8-Chloro-N-(4-(morpholin-2-yl)phenyl)quinolin-2-amine]: the Ki in assay [1] came out at 0.0084 µM; in assay [2], 0.0005 µM.
Turning to `Brc1cccc2nc(Nc3ccc([C@H]4CNCCO4)cc3)ccc12` [Example 53, (S)-5-Bromo-N-(4-(morpholin-2-yl)phenyl)quinolin-2-amine], the Ki was determined as 0.0045 µM in assay [1] and 0.0012 µM in assay [2].
Regarding `Clc1cc(Nc2ccc([C@H]3CNCCO3)cc2)nc2ccccc12` [Example 54, (S)-4-Chloro-N-(4-(morpholin-2-yl)phenyl)quinolin-2-amine], the results for the Ki in assay [1] and in assay [2] were 0.0138 µM and 0.0008 µM, respectively.
Taken in the same sequence, the figures for `Fc1ncccc1Nc1ccc([C@H]2CNCCO2)cc1` [Example 55, (2-Fluoro-pyridin-3-yl)-((S)-4-morpholin-2-yl-phenyl)-amine] were 1.98 µM and 0.738 µM.
Taken in the same sequence, the figures for `Cc1cc(Br)cnc1Nc1ccc([C@H]2CNCCO2)cc1` [Example 56, (S)-5-Bromo-3-methyl-N-(4-(morpholin-2-yl)phenyl)pyridin-2-amine] were 0.211 µM and 0.0372 µM.
Taken in the same sequence, the figures for `Fc1cc(Br)cnc1Nc1ccc([C@H]2CNCCO2)cc1` [Example 57, (S)-5-Bromo-3-fluoro-N-(4-(morpholin-2-yl)phenyl)pyridin-2-amine] were 0.0866 µM and 0.0023 µM.
For the molecule `Clc1cnc(Nc2ccc([C@H]3CNCCO3)cc2)c(Cl)c1` [Example 58, (S)-3,5-Dichloro-N-(4-(morpholin-2-yl)phenyl)pyridin-2-amine], the Ki came out at 0.584 µM in assay [1] and 0.0704 µM in assay [2].
As for `Fc1cc(Cl)ccc1Nc1ccc([C@H]2CNCCO2)cc1` [Example 59, (S)-4-Chloro-2-fluoro-N-(4-(morpholin-2-yl)phenyl)aniline], the Ki stood at 0.207 µM in assay [1] and 0.0049 µM in assay [2].
Taken in the same sequence, the figures for `CN(c1ccc(Cl)cc1)c1ccc([C@H]2CNCCO2)cc1` [Example 60, (4-Chloro-phenyl)-methyl-((S)-4-morpholin-2-yl-phenyl)-amine] were 0.758 µM and 0.0222 µM.
In the case of `Brc1cnc(Nc2ccc([C@H]3CNCCO3)cc2)c(Br)c1` [Example 61, (S)-3,5-Dibromo-N-(4-(morpholin-2-yl)phenyl)pyridin-2-amine], the Ki was found to be 0.502 µM in assay [1] and 0.0591 µM in assay [2].
For `Cc1cc(Nc2ccc([C@H]3CNCCO3)cc2)ncc1Br` [Example 62, (S)-5-Bromo-4-methyl-N-(4-(morpholin-2-yl)phenyl)pyridin-2-amine], the Ki in assay [1] was 0.0094 µM; in assay [2], 0.0005 µM.
Taken in the same sequence, the figures for `Clc1cc(Nc2ccc([C@H]3CNCCO3)cc2)c(Cl)cn1` [Example 63, (S)-2,5-Dichloro-N-(4-(morpholin-2-yl)phenyl)pyridin-4-amine] were 1.49 µM and 0.373 µM.
Taken in the same sequence, the figures for `Cc1cnc(Nc2ccc([C@H]3CNCCO3)cc2)cc1Br` [Example 64, (S)-4-Bromo-5-methyl-N-(4-(morpholin-2-yl)phenyl)pyridin-2-amine] were 0.101 µM and 0.0027 µM.
Taken in the same sequence, the figures for `c1cc([C@H]2CNCCO2)ccc1Nc1ccc2c(c1)OCO2` [Example 65, (S)—N-(4-(Morpholin-2-yl)phenyl)benzo[d][1,3]dioxol-5-amine] were 0.629 µM and 0.0131 µM.
Take `Clc1ccc(Nc2ccc([C@@H]3CNCCO3)cc2)cn1` [Example 67, (R)-6-Chloro-N-(4-(morpholin-2-yl)phenyl)pyridin-3-amine]: the Ki in assay [1] came out at 0.292 µM; in assay [2], 0.0074 µM.
For `CCc1cnc(Nc2ccc([C@@H]3CNCCO3)cc2)nc1` [Example 68, (R)-5-Ethyl-N-(4-(morpholin-2-yl)phenyl)pyrimidin-2-amine], the Ki came to 0.0751 µM in assay [1] and 0.0094 µM in assay [2].
Taken in the same sequence, the figures for `Clc1ccc(Nc2ccc([C@@H]3CNCCO3)cc2)nc1` [Example 69, (R)-5-Chloro-N-(4-(morpholin-2-yl)phenyl)pyridin-2-amine] were 0.0438 µM and 0.0014 µM.
As to `CCOc1cc(Nc2ccc([C@H]3CNCCO3)cc2)cnc1Cl` [Example 71, (S)-6-Chloro-5-ethoxy-N-(4-(morpholin-2-yl)phenyl)pyridin-3-amine], the Ki in assay [1] is 0.168 µM; in assay [2], 0.0118 µM.
Taken in the same sequence, the figures for `CCc1cnc(Nc2ccc([C@H]3CNCCO3)cc2)nc1C` [Example 72, (5-Ethyl-4-methyl-pyrimidin-2-yl)-((S)-4-morpholin-2-yl-phenyl)-amine] were 0.22 µM and 0.0171 µM.
With `Cc1nc(Nc2ccc([C@H]3CNCCO3)cc2)ncc1C(C)C` [Example 73, (5-Isopropyl-4-methyl-pyrimidin-2-yl)-((S)-4-morpholin-2-yl-phenyl)-amine], the Ki in assay [1] came to 0.035 µM; in assay [2], 0.0096 µM.
Taken in the same sequence, the figures for `c1cc([C@H]2CNCCO2)ccc1Nc1ncc2c(n1)CCCC2` [Example 74, ((S)-4-Morpholin-2-yl-phenyl)-(5,6,7,8-tetrahydro-quinazolin-2-yl)-amine] were 0.0295 µM and 0.0059 µM.
Turning to `O=[N+]([O-])c1cnc(Nc2ccc([C@H]3CNCCO3)cc2)nc1` [Example 75, ((S)-4-Morpholin-2-yl-phenyl)-(5-nitro-pyrimidin-2-yl)-amine], the figures for the Ki in assay [1] and in assay [2] were 0.228 µM and 0.0141 µM, respectively.
`Fc1cc(Cl)cnc1Nc1ccc([C@H]2CNCCO2)cc1` [Example 77, (S)-5-Chloro-3-fluoro-N-(4-(morpholin-2-yl)phenyl)pyridin-2-amine]: the Ki stood at 0.13 µM in assay [1] and 0.0053 µM in assay [2].
Taken in the same sequence, the figures for `CS(=O)(=O)c1cnc(Nc2ccc([C@H]3CNCCO3)cc2)nc1` [Example 78, (5-Methanesulfonyl-pyrimidin-2-yl)-((S)-4-morpholin-2-yl-phenyl)-amine] were 3.19 µM and 0.11 µM.
Taken in the same sequence, the figures for `FC(F)(F)c1cc(Nc2ccc([C@H]3CNCCO3)cc2)ncc1Cl` [Example 82, (S)-5-Chloro-N-(4-(morpholin-2-yl)phenyl)-4-(trifluoromethyl)pyridin-2-amine] were 0.0101 µM and 0.0008 µM.
As for `Cc1cc(Nc2ccc([C@H]3CNCCO3)cc2)ncc1Cl` [Example 83, (S)-5-Chloro-4-methyl-N-(4-(morpholin-2-yl)phenyl)pyridin-2-amine], the results for the Ki in assay [1] and in assay [2] were 0.0222 µM and 0.0006 µM, respectively.
Taken in the same sequence, the figures for `c1cc([C@@H]2CNCCO2)ccc1Nc1ncc(C2CC2)cn1` [Example 86, (5-Cyclopropyl-pyrimidin-2-yl)-((R)-4-morpholin-2-yl-phenyl)-amine] were 0.009 µM and 0.0024 µM.
Taken in the same sequence, the figures for `CCCc1cnc(Nc2ccc([C@@H]3CNCCO3)cc2)nc1` [Example 93, ((R)-4-Morpholin-2-yl-phenyl)-(5-propyl-pyrimidin-2-yl)-amine] were 0.0222 µM and 0.005 µM.
For `FC(F)(F)c1cnc(Nc2ccc([C@@H]3CNCCO3)cc2)nc1` [Example 95, ((R)-4-Morpholin-2-yl-phenyl)-(5-trifluoromethyl-pyrimidin-2-yl)-amine], the values for the Ki in assay [1] and in assay [2] were 0.0223 µM and 0.0057 µM, respectively.
Taken in the same sequence, the figures for `Clc1cnc(Nc2ccc([C@@H]3CNCCO3)cc2)nc1` [Example 103, (R)-5-Chloro-N-(4-(morpholin-2-yl)phenyl)pyrimidin-2-amine] were 0.05 µM and 0.0044 µM.
Taken in the same sequence, the figures for `Clc1cnc(Nc2ccc([C@H]3CNCCO3)cc2)nc1` [Example 104, (S)-5-Chloro-N-(4-(morpholin-2-yl)phenyl)pyrimidin-2-amine] were 0.105 µM and 0.0041 µM.
Taken in the same sequence, the figures for `CCOc1cnc(Nc2ccc([C@@H]3CNCCO3)cc2)nc1` [Example 105, (5-Ethoxy-pyrimidin-2-yl)-((R)-4-morpholin-2-yl-phenyl)-amine] were 0.127 µM and 0.0116 µM.
Regarding `CCc1cnc(Nc2ccc([C@@H]3CNCCO3)cc2C)nc1` [Example 106, (5-Ethyl-pyrimidin-2-yl)-((R)-2-methyl-4-morpholin-2-yl-phenyl)-amine], the Ki in assay [1] was determined as 0.0814 µM; in assay [2] it was 0.0086 µM.
Taken in the same sequence, the figures for `CCc1cnc(Nc2ccc([C@H]3CNCCO3)cc2C)nc1` [Example 107, (5-Ethyl-pyrimidin-2-yl)-((S)-2-methyl-4-morpholin-2-yl-phenyl)-amine] were 0.0877 µM and 0.005 µM.
As to `CCc1cnc(Nc2ccc([C@@H]3CCCNC3)cc2)nc1` [Example 112, (5-Ethyl-pyrimidin-2-yl)-((S)-4-piperidin-3-yl-phenyl)-amine], the Ki came out at 0.197 µM in assay [1] and 0.0038 µM in assay [2].
Taken in the same sequence, the figures for `c1ccc(-c2cc(Nc3ccc([C@H]4CNCCO4)cc3)n[nH]2)cc1` [Example 113, (S)—N-(4-(Morpholin-2-yl)phenyl)-5-phenyl-1H-pyrazol-3-amine] were 0.0877 µM and 0.0011 µM.
Taken in the same sequence, the figures for `CCOc1cnc(Nc2ccc([C@@H]3CCCNC3)cc2)nc1` [Example 114, (5-Ethoxy-pyrimidin-2-yl)-((S)-4-piperidin-3-yl-phenyl)-amine] were 0.996 µM and 0.0212 µM.
For the molecule `c1ccc(-c2nnc(Nc3ccc([C@H]4CNCCO4)cc3)o2)cc1` [Example 115, (S)—N-(4-(Morpholin-2-yl)phenyl)-5-phenyl-1,3,4-oxadiazol-2-amine], the Ki came to 0.235 µM in assay [1] and 0.0079 µM in assay [2].
Taken in the same sequence, the figures for `CCc1cnc(Nc2ccc([C@@H]3CNCCO3)cc2F)nc1` [Example 116, (5-Ethyl-pyrimidin-2-yl)-((R)-2-fluoro-4-morpholin-2-yl-phenyl)-amine] were 0.007 µM and 0.0039 µM.
